Patent US20240358783A1, “METHOD AND SYSTEM FOR THE TRANSDERMAL ADMINISTRATION OF A P[…]” (LYFE CHNG, LLC, priority 2021, published 2024)

Experiment: skin flux of psilocin, inventors' testing
Type: in vitro ADME
Method: With psilocin, specifically, the Madsen et al. findings provide a starting point for identifying optimal plasma psilocin levels that correlate with a desired 5-HT2A receptor occupancy levels. According to the inventors' testing, the skin flux of psilocin is in the range of 1 μg/cm^2/hr to […], on average 5 μg/cm^2/hr. With patch area of 50 cm^2 the dose per hour input ranges from 50 μg/hr/patch to 500 μg/hr/patch. At this patch size, the high end of the hourly input is approaching that of a 1-mg intravenous application. The daily dose ranges from 1.2 mg/day/patch to 12 mg/day/patch. At a skin flux of 5 μg/cm^2/hr, the hourly input is 250 μg/hr/patch and the daily dose is 6 mg/day/patch. A suitable transdermal system for accomplishing the aforementioned delivery profile can be constructed as described above.

[1] = patch area of 50 cm^2, at a skin flux of 5 μg/cm^2/hr

CN(C)CCc1c[nH]c2cccc(O)c12 [psilocin]
skin flux of psilocin, on average (average, according to the inventors' testing): 5 μg/cm^2/hr | daily dose [1]: 6 mg/day/patch | hourly input [1]: 250 μg/hr/patch
